Measurements as given in patent US20130281397A1, “TREATMENT OF DISEASES BY EPIGENETIC REGULATION” (RVX Therapeutics Inc., priority 2012, published 2013).
Structures can show the parent of a compound that is named as a salt.

molecular target: T1, Brd4 bromodomain 1 (Homo sapiens, UniProt O60885); assay: Inhibition of binding of tetra-acetylated histone H4 and Brd4 bromodomain 1 by TR-FRET; details: His-tagged bromodomain 200 nM, biotinylated tetra-acetylated histone H4 peptide 25-50 nM, 2 hours at room temperature
T1 construct: made in house; host or cells: E. coli BL21(DE3)
Protocol: Proteins were cloned and overexpressed with a N-terminal 6×His tag, then purified by nickel affinity followed by size exclusion chromatography. Briefly, E. coli BL21(DE3) cells were transformed with a recombinant expression vector encoding N-terminally […] tagged bromodomains from Brd2, Brd3, or Brd4. Cell cultures were incubated at 37° C. with shaking to the appropriate density and induced overnight with IPTG. The supernatant of lysed cells was loaded onto Ni-IDA column for purification. Eluted protein was pooled, concentrated and further purified by size exclusion chromatography. Fractions representing monomeric protein were pooled, concentrated, aliquoted, and frozen at −80° C. for use in subsequent experiments.
For inhibition assays, serially diluted test compound was added to these reactions in a 0.2% final concentration of DMSO. Final buffer concentrations were 30 mM HEPES pH 7.4, 30 mM NaCl, 0.3 mM CHAPS, 20 mM phosphate pH 7.0, 320 mM KF, 0.08% BSA). […] The binding inhibitory activity was shown by a decrease in 665 nm fluorescence relative to 620 nm. IC50 values were determined from a dose response curve.

| SMILES | FRET activity (<50 uM) |
| --- | --- |
| CCCNC(=O)OCCOc1c(C)cc(-c2nc3cc(OC)cc(OC)c3c(=O)[nH]2)cc1C [Example 99, 2-(4-(5,7-Dimethoxy-4-oxo-3,4-dihydroquinazolin-2-yl)-2,6-dimethyl-phenoxy)ethyl propylcarbamate] | Active |
| CNC(=O)OCCOc1c(C)cc(-c2nc3cc(OC)cc(OC)c3c(=O)[nH]2)cc1C [Example 100, 2-(4-(5,7-Dimethoxy-4-oxo-3,4-dihydroquinazolin-2-yl)-2,6-dimethyl-phenoxy)ethyl methylcarbamate] | Active |
| COc1cc(OC)c2c(=O)[nH]c(-c3cc(C)c(OCCOC(=O)NC4CCCCC4)c(C)c3)nc2c1 [Example 102, 2-(4-(5,7-dimethoxy-4-oxo-3,4-dihydroquinazolin-2-yl)-2,6-dimethylphenoxy)ethyl cyclohexylcarbamate] | Active |
| COc1cc(OC)c2c(=O)[nH]c(-c3cc(C)c(OCCNS(=O)(=O)c4ccccc4)c(C)c3)nc2c1 [Example 103, N-(2-(4-(5,7-dimethoxy-4-oxo-3,4-dihydroquinazolin-2-yl)-2,6-dimethylphenoxy)ethyl)benzenesulfonamide] | Inactive |
| COc1ccc(C(=O)NCCOc2c(C)cc(-c3nc4cc(OC)cc(OC)c4c(=O)[nH]3)cc2C)cc1 [Example 105, N-(2-(4-(5,7-dimethoxy-4-oxo-3,4-dihydroquinazolin-2-yl)-2,6-dimethylphenoxy)ethyl)-4-methoxybenzamide] | Inactive |
| COc1cc(OC)c2c(=O)[nH]c(-c3cc(C)c(OCCNC(=O)c4ccccc4)c(C)c3)nc2c1 [Example 107, N-(2-(4-(5,7-dimethoxy-4-oxo-3,4-dihydroquinazolin-2-yl)-2,6-dimethylphenoxy)ethyl)benzamide] | Active |
| COc1cc(OC)c2c(=O)[nH]c(-c3cc(C)c(OCCNC(=O)C(C)C)c(C)c3)nc2c1 [Example 108, N-(2-(4-(5,7-dimethoxy-4-oxo-3,4-dihydroquinazolin-2-yl)-2,6-dimethylphenoxy)ethyl)isobutyramide] | Active |
| CNC(=O)NCCOc1c(C)cc(-c2nc3cc(OC)cc(OC)c3c(=O)[nH]2)cc1C [Example 109, 1-(2-(4-(5,7-dimethoxy-4-oxo-3,4-dihydroquinazolin-2-yl)-2,6-dimethylphenoxy)ethyl)-3-methylurea] | Active |
| COc1ccc(NC(=O)NCCOc2c(C)cc(-c3nc4cc(OC)cc(OC)c4c(=O)[nH]3)cc2C)cc1 [Example 110, 1-(2-(4-(5,7-dimethoxy-4-oxo-3,4-dihydroquinazolin-2-yl)-2,6-dimethylphenoxy)ethyl)-3-(4-methoxyphenyl)urea] | Inactive |
| COc1cc(OC)c2c(=O)[nH]c(-c3cc(C)c(OCCNC(=O)Nc4ccccc4)c(C)c3)nc2c1 [Example 111, 1-(2-(4-(5,7-dimethoxy-4-oxo-3,4-dihydroquinazolin-2-yl)-2,6-dimethylphenoxy)ethyl)-3-phenylurea] | Active |
| COc1cc(OC)c2c(=O)[nH]c(-c3cc(C)c(OCCNC(=O)N(C)C)c(C)c3)nc2c1 [Example 112, 3-(2-(4-(5,7-dimethoxy-4-oxo-3,4-dihydroquinazolin-2-yl)-2,6-dimethylphenoxy)ethyl)-1,1-dimethylurea] | Active |

Next, values leading:

| FRET activity (<50 uM) | SMILES |
| --- | --- |
| Active | COc1cc(OC)c2c(=O)[nH]c(-c3cc(C)c(OCCNC(=O)c4ccc(C)cc4)c(C)c3)nc2c1 [Example 101, N-(2-(4-(5,7-Dimethoxy-4-oxo-3,4-dihydroquinazolin-2-yl)-2,6-dimethylphenoxy)ethyl)-4-methylbenzamide] |
| Inactive | COc1cc(OC)c2c(=O)[nH]c(-c3cc(C)c(OCCNS(=O)(=O)c4ccc(C)cc4)c(C)c3)nc2c1 [Example 104, N-(2-(4-(5,7-dimethoxy-4-oxo-3,4-dihydroquinazolin-2-yl)-2,6-dimethylphenoxy)ethyl)-4-methylbenzenesulfonamide] |
| Active | COc1cc(OC)c2c(=O)[nH]c(-c3cc(C)c(OCCNC(C)=O)c(C)c3)nc2c1 [Example 106, N-(2-(4-(5,7-dimethoxy-4-oxo-3,4-dihydroquinazolin-2-yl)-2,6-dimethylphenoxy)ethyl)acetamide] |

tested on: not given; assay: not given; details: not given

| SMILES | melting point |
| --- | --- |
| Cc1cc(-c2cc3ncccc3c(=O)[nH]2)cc(C)c1O (as salt: HCl) [Example 5, 7-(4-hydroxy-3,5-dimethylphenyl)-1,6-naphthyridin-5(6H)-one] | > 350 °C |
| COc1cc(OC)c2c(=O)[nH]c(-c3cc(C)c(O)c(C)c3)cc2n1 (as salt: HCl) [Example 13, 7-(4-hydroxy-3,5-dimethylphenyl)-2,4-dimethoxy-1,6-naphthyridin-5(6H)-one] | > 324 °C |
| COc1cc(OC)c2c(=O)[nH]c(-c3cc(C)c(OCCN(C)C)c(C)c3)cc2c1 (as salt: hydrochloride) [Example 7, 3-(4-(2-(dimethylamino)ethoxy)-3,5-dimethylphenyl)-6,8-dimethoxyisoquinolin-1(2H)-one] | 261 to 263 °C |
| Cc1cc(-c2cc3ccc(CN4CCOCC4)cc3c(=O)[nH]2)cc(C)c1O (as salt: hydrochloride) [Example 8, 3-(4-hydroxy-3,5-dimethylphenyl)-7-(morpholinomethyl)isoquinolin-1(2H)-one] | 281 to 283 °C |
| COc1cc(O)nc2cc(-c3cc(C)c(O)c(C)c3)[nH]c(=O)c12 (as salt: hydrochloride) [Example 9, 2-hydroxy-7-(4-hydroxy-3,5-dimethylphenyl)-4-methoxy-1,6-naphthyridin-5(6H)-one] | > 330 °C |
| Cc1cc(-c2nc3ccccc3c(=O)[nH]2)cc(C)c1OCCN1CCOCC1 (as salt: hydrochloride) [Example 29, 2-(3,5-dimethyl-4-(2-morpholinoethoxy)phenyl)quinazolin-4(3H)-one] | 300 to 302 °C |
| Cc1cc(-c2nc3ccc(CN4CCOCC4)cc3c(=O)[nH]2)cc(C)c1O (as salt: hydrochloride) [Example 57, 2-(4-hydroxy-3,5-dimethylphenyl)-6-(morpholinomethyl)quinazolin-4(3H)-one] | 284 to 286 °C |
| COc1cc2cc(-c3cc(C)c(O)c(C)c3)n(C)c(=O)c2c(OC)c1C [Example 14 (left), 3-(4-hydroxy-3,5-dimethylphenyl)-6,8-dimethoxy-2,7-dimethylisoquinolin-1(2H)-one] | 246 to 248 °C |
| COc1cc2nc(-c3ccc(N(C)C)c4ccccc34)[nH]c(=O)c2cc1OC [Example 39] | 235.5 to 236.5 °C |

More lines, now with the values ahead:

| melting point | SMILES |
| --- | --- |
| 185 to 187 °C | COc1cc(OC)c2c(=O)[nH]c(-c3cc(C)c(OCCN4CCOCC4)c(C)c3)nc2c1 (as salt: hydrochloride) [Example 17, 2-(3,5-dimethyl-4-(2-morpholinoethoxy)phenyl)-5,7-dimethoxyquinazolin-4(3H)-one] |
| 195 to 198 °C | COc1cc(OC)c2c(=O)[nH]c(-c3cc(C)c(OCCN4CCN(C)CC4)c(C)c3)cc2c1 (as salt: hydrochloride) [Example 18, 3-(3,5-dimethyl-4-(2-(4-methylpiperazin-1-yl)ethoxy)phenyl)-6,8-dimethoxyisoquinolin-1(2H)-one] |
| 215 to 217 °C | COc1cc(OC)c2c(=O)[nH]c(-c3ccccn3)nc2c1 (as salt: hydrochloride) [Example 21, 5,7-dimethoxy-2-(pyridin-2-yl)quinazolin-4(3H)-one] |
| 257 to 259 °C | COc1cc(OC)c2c(=O)[nH]c(-c3cccnc3)nc2c1 (as salt: hydrochloride) [Example 22, 5,7-dimethoxy-2-(pyridin-3-yl)quinazolin-4(3H)-one] |
| 294 to 295 °C | COc1cc(OC)c2c(=O)[nH]c(-c3ccncc3)nc2c1 (as salt: hydrochloride) [Example 28, 5,7-dimethoxy-2-(pyridin-4-yl)quinazolin-4(3H)-one] |
| 275 to 277 °C | COc1cc(OC)c2c(=O)[nH]c(-c3ccc(CN4CCN(C)CC4)cc3)nc2c1 (as salt: hydrochloride) [Example 54, 5,7-dimethoxy-2-(4-((4-methylpiperazin-1-yl)methyl)phenyl)quinazolin-4(3H)-one] |
| 206 to 208 °C (dec.) | COc1cc(OC)c2c(=O)[nH]c(-c3ccc(CN4CCOCC4)cc3)nc2c1 (as salt: hydrochloride) [Example 61, 5,7-dimethoxy-2-(4-(morpholinomethyl)phenyl)quinazolin-4(3H)-one] |
| 278 to 280 °C (dec.) | CCN1CCN(Cc2ccc(-c3nc4cc(OC)cc(OC)c4c(=O)[nH]3)cc2)CC1 (as salt: hydrochloride) [Example 62, 2-(4-((4-ethylpiperazin-1-yl)methyl)phenyl)-5,7-dimethoxyquinazolin-4(3H)-one] |
| 268 to 270 °C | COc1cc2nc(-c3ccc(N(CCO)CCO)cc3)[nH]c(=O)c2cc1OC [Example 42, 2-(4-(bis(2-hydroxyethyl)amino)phenyl)-6,7-dimethoxyquinazolin-4(3H)-one] |
| 246 to 248 °C | COc1cc(OC)c2c(=O)[nH]c(-c3ccc(OCCO)c(OC)c3)nc2c1 [Example 52, 2-(4-(2-hydroxyethoxy)-3-methoxyphenyl)-5,7-dimethoxyquinazolin-4(3H)-one] |
